Patent US12637437B2, “Herbicidal compounds” (SYNGENTA CROP PROTECTION AG, priority 2021, dated 2026)

What was measured:
Type in all cases: in vivo
[1] = test system: Amaranthus retoflexus (AMARE); assay: Post-emergence herbicidal glasshouse test, AMARE; set-up: dose or concentration left out as unconfirmed; conditions: evaluated after 13 days, five-point scale
Procedure: (§1) Seeds of a variety of test species are sown in standard soil in pots (Lolium perenne (LOLPE), Amaranthus retoflexus (AMARE), Abutilon theophrasti (ABUTH), Setaria faberi (SETFA), Echinochloa crus-galli (ECHCG), Ipomoea hederacea (IPOHE)). After cultivation for one day (pre-emergence) or after 8 days cultivation (post-emergence) under controlled conditions in a glasshouse (at 24/16° C., day/night; 14 hours light; 65% humidity), the plants are sprayed with an aqueous spray solution derived from the formulation of the technical active ingredient in acetone/water (50:50) solution containing 0.5% Tween 20 (polyoxyethelyene sorbitan monolaurate, CAS RN 9005-64-5). Compounds are applied at 125 g/h unless otherwise indicated. The test plants are then grown in a glasshouse under controlled conditions in a glasshouse (at 24/16° C., day/night; 14 hours light; 65% humidity) and watered twice daily. After 13 days for pre and post-emergence, the test is evaluated for the percentage damage caused to the plant. The biological activities are shown in the following table on a five-point scale (5=80-100%; 4=60-79%; 3=40-59%; 2=20-39%; 1=0-19%). “—” denotes not tested on this species or data not captured.

[2] = test system: Abutilon theophrasti (ABUTH); assay: Post-emergence herbicidal glasshouse test, ABUTH; conditions: 125 g/h, evaluated after 13 days, five-point scale
Procedure: as §1

Setaria faberi (SETFA) [3] = assay: Post-emergence herbicidal glasshouse test, SETFA; conditions: 125 g/h, evaluated after 13 days, five-point scale
Procedure: as §1

[4] = test system: Echinochloa crus-galli (ECHCG); assay: Post-emergence herbicidal glasshouse test, ECHCG; conditions: 125 g/h, evaluated after 13 days, five-point scale
Procedure: as §1

[5] = test system: Ipomoea hederacea (IPOHE); assay: Post-emergence herbicidal glasshouse test, IPOHE; conditions: 125 g/h, evaluated after 13 days, five-point scale
Procedure: as §1

[6] = test system: Amaranthus retoflexus (AMARE); assay: Pre-emergence herbicidal glasshouse test, AMARE; conditions: 125 g/h, evaluated after 13 days, five-point scale
Procedure: as §1

[7] = test system: Abutilon theophrasti (ABUTH); assay: Pre-emergence herbicidal glasshouse test, ABUTH; conditions: 125 g/h, evaluated after 13 days, five-point scale
Procedure: as §1

Setaria faberi (SETFA) [8] = assay: Pre-emergence herbicidal glasshouse test, SETFA; conditions: 125 g/h, evaluated after 13 days, five-point scale
Procedure: as §1

[9] = test system: Echinochloa crus-galli (ECHCG); assay: Pre-emergence herbicidal glasshouse test, ECHCG; conditions: 125 g/h, evaluated after 13 days, five-point scale
Procedure: as §1

[10] = test system: Ipomoea hederacea (IPOHE); assay: Pre-emergence herbicidal glasshouse test, IPOHE; conditions: 125 g/h, evaluated after 13 days, five-point scale
Procedure: as §1

Structure (SMILES): COC(=O)Nc1c(OC(F)(F)F)ccc(C(=O)Nc2nnnn2C)c1Cl [Compound 1.001]
- percentage damage caused to the plant, POST Application AMARE [1]: 5 (5=80-100%)
- percentage damage caused to the plant, POST Application ABUTH [2]: 5 (5=80-100%)
- percentage damage caused to the plant, POST Application SETFA (Setaria faberi (SETFA) [3]): 5 (5=80-100%)
- percentage damage caused to the plant, POST Application ECHCG [4]: 5 (5=80-100%)
- percentage damage caused to the plant, POST Application IPOHE [5]: 5 (5=80-100%)
- percentage damage caused to the plant, PRE Application AMARE [6]: 5 (5=80-100%)
- percentage damage caused to the plant, PRE Application ABUTH [7]: 5 (5=80-100%)
- percentage damage caused to the plant, PRE Application SETFA (Setaria faberi (SETFA) [8]): 5 (5=80-100%)
- percentage damage caused to the plant, PRE Application ECHCG [9]: 5 (5=80-100%)
- percentage damage caused to the plant, PRE Application IPOHE [10]: 3 (3=40-59%)

Structure (SMILES): CCOC(=O)Nc1c(OC(F)(F)F)ccc(C(=O)Nc2nnnn2C)c1Cl [Compound 1.002, ethyl N-[2-chloro-3-[(1-methyltetrazol-5-yl)carbamoyl]-6-(trifluoromethoxy)phenyl]carbamate]
- percentage damage caused to the plant, POST Application AMARE [1]: 4 (4=60-79%)
- percentage damage caused to the plant, POST Application ABUTH [2]: 4 (4=60-79%)
- percentage damage caused to the plant, POST Application SETFA (Setaria faberi (SETFA) [3]): 4 (4=60-79%)
- percentage damage caused to the plant, POST Application ECHCG [4]: 4 (4=60-79%)
- percentage damage caused to the plant, POST Application IPOHE [5]: 4 (4=60-79%)
- percentage damage caused to the plant, PRE Application AMARE [6]: 5 (5=80-100%)
- percentage damage caused to the plant, PRE Application ABUTH [7]: 5 (5=80-100%)
- percentage damage caused to the plant, PRE Application SETFA (Setaria faberi (SETFA) [8]): 4 (4=60-79%)
- percentage damage caused to the plant, PRE Application ECHCG [9]: 5 (5=80-100%)
- percentage damage caused to the plant, PRE Application IPOHE [10]: 5 (5=80-100%)

Structure (SMILES): CCn1nnnc1NC(=O)c1ccc(OC(F)(F)F)c(NC(=O)OC)c1Cl [Compound 1.003]
- percentage damage caused to the plant, POST Application AMARE [1]: 4 (4=60-79%)
- percentage damage caused to the plant, POST Application ABUTH [2]: 4 (4=60-79%)
- percentage damage caused to the plant, POST Application SETFA (Setaria faberi (SETFA) [3]): 4 (4=60-79%)
- percentage damage caused to the plant, POST Application ECHCG [4]: 4 (4=60-79%)
- percentage damage caused to the plant, POST Application IPOHE [5]: 4 (4=60-79%)
- percentage damage caused to the plant, PRE Application AMARE [6]: 5 (5=80-100%)
- percentage damage caused to the plant, PRE Application ABUTH [7]: 5 (5=80-100%)
- percentage damage caused to the plant, PRE Application SETFA (Setaria faberi (SETFA) [8]): 5 (5=80-100%)
- percentage damage caused to the plant, PRE Application ECHCG [9]: 5 (5=80-100%)
- percentage damage caused to the plant, PRE Application IPOHE [10]: 4 (4=60-79%)

Structure (SMILES): CCOC(=O)Nc1c(OC(F)(F)F)ccc(C(=O)Nc2nnnn2CC)c1Cl [Compound 1.004]
- percentage damage caused to the plant, POST Application AMARE [1]: 4 (4=60-79%)
- percentage damage caused to the plant, POST Application ABUTH [2]: 4 (4=60-79%)
- percentage damage caused to the plant, POST Application SETFA (Setaria faberi (SETFA) [3]): 4 (4=60-79%)
- percentage damage caused to the plant, POST Application ECHCG [4]: 4 (4=60-79%)
- percentage damage caused to the plant, POST Application IPOHE [5]: 4 (4=60-79%)
- percentage damage caused to the plant, PRE Application AMARE [6]: 5 (5=80-100%)
- percentage damage caused to the plant, PRE Application ABUTH [7]: 5 (5=80-100%)
- percentage damage caused to the plant, PRE Application SETFA (Setaria faberi (SETFA) [8]): 3 (3=40-59%)
- percentage damage caused to the plant, PRE Application ECHCG [9]: 5 (5=80-100%)
- percentage damage caused to the plant, PRE Application IPOHE [10]: 4 (4=60-79%)

Structure (SMILES): COC(=O)Nc1c(OC(F)F)ccc(C(=O)Nc2nnnn2C)c1Cl [Compound 1.005]
- percentage damage caused to the plant, POST Application AMARE [1]: 5 (5=80-100%)
- percentage damage caused to the plant, POST Application ABUTH [2]: 5 (5=80-100%)
- percentage damage caused to the plant, POST Application SETFA (Setaria faberi (SETFA) [3]): 5 (5=80-100%)
- percentage damage caused to the plant, POST Application ECHCG [4]: 5 (5=80-100%)
- percentage damage caused to the plant, POST Application IPOHE [5]: 5 (5=80-100%)
- percentage damage caused to the plant, PRE Application AMARE [6]: 5 (5=80-100%)
- percentage damage caused to the plant, PRE Application ABUTH [7]: 5 (5=80-100%)
- percentage damage caused to the plant, PRE Application SETFA (Setaria faberi (SETFA) [8]): 4 (4=60-79%)
- percentage damage caused to the plant, PRE Application ECHCG [9]: 5 (5=80-100%)
- percentage damage caused to the plant, PRE Application IPOHE [10]: 4 (4=60-79%)

Structure (SMILES): COCCOC(=O)Nc1c(OC(F)(F)F)ccc(C(=O)Nc2nnnn2C)c1Cl [Compound 1.006]
- percentage damage caused to the plant, POST Application AMARE [1]: 5 (5=80-100%)
- percentage damage caused to the plant, POST Application ABUTH [2]: 5 (5=80-100%)
- percentage damage caused to the plant, POST Application SETFA (Setaria faberi (SETFA) [3]): 4 (4=60-79%)
- percentage damage caused to the plant, POST Application ECHCG [4]: 4 (4=60-79%)
- percentage damage caused to the plant, POST Application IPOHE [5]: 4 (4=60-79%)
- percentage damage caused to the plant, PRE Application AMARE [6]: 4 (4=60-79%)
- percentage damage caused to the plant, PRE Application ABUTH [7]: 5 (5=80-100%)
- percentage damage caused to the plant, PRE Application SETFA (Setaria faberi (SETFA) [8]): 4 (4=60-79%)
- percentage damage caused to the plant, PRE Application ECHCG [9]: 5 (5=80-100%)
- percentage damage caused to the plant, PRE Application IPOHE [10]: 4 (4=60-79%)

Structure (SMILES): Cn1nnnc1NC(=O)c1ccc(OC(F)F)c(N2CCOC2=O)c1Cl [Compound 1.037]
- percentage damage caused to the plant, POST Application AMARE [1]: 5 (5=80-100%)
- percentage damage caused to the plant, POST Application SETFA (Setaria faberi (SETFA) [3]): 5 (5=80-100%)
- percentage damage caused to the plant, POST Application ECHCG [4]: 5 (5=80-100%)
- percentage damage caused to the plant, POST Application IPOHE [5]: 5 (5=80-100%)
- percentage damage caused to the plant, PRE Application AMARE [6]: 5 (5=80-100%)
- percentage damage caused to the plant, PRE Application SETFA (Setaria faberi (SETFA) [8]): 5 (5=80-100%)
- percentage damage caused to the plant, PRE Application ECHCG [9]: 5 (5=80-100%)
- percentage damage caused to the plant, PRE Application IPOHE [10]: 5 (5=80-100%)

Structure (SMILES): CCOC(=O)N(C)c1c(OC(F)F)ccc(C(=O)Nc2nnnn2C)c1Cl [Compound 1.041]
- percentage damage caused to the plant, POST Application AMARE [1]: 5 (5=80-100%)
- percentage damage caused to the plant, POST Application SETFA (Setaria faberi (SETFA) [3]): 5 (5=80-100%)
- percentage damage caused to the plant, POST Application ECHCG [4]: 5 (5=80-100%)
- percentage damage caused to the plant, POST Application IPOHE [5]: 5 (5=80-100%)
- percentage damage caused to the plant, PRE Application AMARE [6]: 5 (5=80-100%)
- percentage damage caused to the plant, PRE Application SETFA (Setaria faberi (SETFA) [8]): 4 (4=60-79%)
- percentage damage caused to the plant, PRE Application ECHCG [9]: 5 (5=80-100%)
- percentage damage caused to the plant, PRE Application IPOHE [10]: 4 (4=60-79%)

Structure (SMILES): COC(=O)N(C)c1c(OC(F)F)ccc(C(=O)Nc2nnnn2C)c1Cl [Compound 1.042]
- percentage damage caused to the plant, POST Application AMARE [1]: 5 (5=80-100%)
- percentage damage caused to the plant, POST Application SETFA (Setaria faberi (SETFA) [3]): 5 (5=80-100%)
- percentage damage caused to the plant, POST Application ECHCG [4]: 5 (5=80-100%)
- percentage damage caused to the plant, POST Application IPOHE [5]: 5 (5=80-100%)
- percentage damage caused to the plant, PRE Application AMARE [6]: 5 (5=80-100%)
- percentage damage caused to the plant, PRE Application SETFA (Setaria faberi (SETFA) [8]): 5 (5=80-100%)
- percentage damage caused to the plant, PRE Application ECHCG [9]: 5 (5=80-100%)
- percentage damage caused to the plant, PRE Application IPOHE [10]: 4 (4=60-79%)

Structure (SMILES): CCN(C(=O)OC)c1c(OC(F)F)ccc(C(=O)Nc2nnnn2C)c1Cl [Compound 1.043]
- percentage damage caused to the plant, POST Application AMARE [1]: 5 (5=80-100%)
- percentage damage caused to the plant, POST Application SETFA (Setaria faberi (SETFA) [3]): 5 (5=80-100%)
- percentage damage caused to the plant, POST Application ECHCG [4]: 5 (5=80-100%)
- percentage damage caused to the plant, POST Application IPOHE [5]: 4 (4=60-79%)
- percentage damage caused to the plant, PRE Application AMARE [6]: 5 (5=80-100%)
- percentage damage caused to the plant, PRE Application SETFA (Setaria faberi (SETFA) [8]): 5 (5=80-100%)
- percentage damage caused to the plant, PRE Application ECHCG [9]: 5 (5=80-100%)
- percentage damage caused to the plant, PRE Application IPOHE [10]: 3 (3=40-59%)

Structure (SMILES): CCOC(=O)N(CC)c1c(OC(F)F)ccc(C(=O)Nc2nnnn2C)c1Cl [Compound 1.044]
- percentage damage caused to the plant, POST Application AMARE [1]: 5 (5=80-100%)
- percentage damage caused to the plant, POST Application SETFA (Setaria faberi (SETFA) [3]): 5 (5=80-100%)
- percentage damage caused to the plant, POST Application ECHCG [4]: 5 (5=80-100%)
- percentage damage caused to the plant, POST Application IPOHE [5]: 4 (4=60-79%)
- percentage damage caused to the plant, PRE Application AMARE [6]: 5 (5=80-100%)
- percentage damage caused to the plant, PRE Application SETFA (Setaria faberi (SETFA) [8]): 4 (4=60-79%)
- percentage damage caused to the plant, PRE Application ECHCG [9]: 5 (5=80-100%)
- percentage damage caused to the plant, PRE Application IPOHE [10]: 2 (2=20-39%)
